Measurements: the NIST ThermoML archive (doi:10.1016/j.jct.2003.12.012)

Legend:
[1] = for mass density / vapor or sublimation pressure: Liquid; for mass density: Vibrating tube method
[2] = molar heat capacity at saturation pressure
[3] = Molar enthalpy of transition or fusion; conditions: Crystal; Adiabatic calorimetry

c1ccc2c3c(sc2c1)CCCC3 [1,2,3,4-tetrahydrodibenzothiophene]
[1]
Conditions	mass density [kg/m3]
323.14 K	1125.7
348.13 K	1105.2
373.12 K	1086
423.11 K	1046.8
448.11 K	1028.1

[1]
Conditions	Triple point temperature [K]	vapor or sublimation pressure [kPa]
359.98 K, Inclined piston gauge	–	0.0221
369.98 K, Inclined piston gauge	–	0.0414
379.97 K, Inclined piston gauge	–	0.0746
389.97 K, Inclined piston gauge	–	0.1296
400.17 K, Inclined piston gauge	–	0.2209
409.96 K, Inclined piston gauge	–	0.3567
419.97 K, Inclined piston gauge	–	0.5674
429.96 K, Inclined piston gauge	–	0.8785
439.96 K, Inclined piston gauge	–	1.328
449.96 K, Inclined piston gauge	–	1.962
450.48 K, Ebulliometric method (Recirculating still)	–	2.002
454.96 K, Inclined piston gauge	–	2.368
459.96 K, Inclined piston gauge	–	2.842
469.6 K, Ebulliometric method (Recirculating still)	–	3.993
478.25 K, Ebulliometric method (Recirculating still)	–	5.331
491.02 K, Ebulliometric method (Recirculating still)	–	8
500.6 K, Ebulliometric method (Recirculating still)	–	10.67
508.29 K, Ebulliometric method (Recirculating still)	–	13.32
516.36 K, Ebulliometric method (Recirculating still)	–	16.66
523.05 K, Ebulliometric method (Recirculating still)	–	19.94
531.82 K, Ebulliometric method (Recirculating still)	–	25.02
540.67 K, Ebulliometric method (Recirculating still)	–	31.18
549.55 K, Ebulliometric method (Recirculating still)	–	38.56
558.49 K, Ebulliometric method (Recirculating still)	–	47.38
567.47 K, Ebulliometric method (Recirculating still)	–	57.8
576.48 K, Ebulliometric method (Recirculating still)	–	70.09
585.54 K, Ebulliometric method (Recirculating still)	–	84.5
594.67 K, Ebulliometric method (Recirculating still)	–	101.29
603.84 K, Ebulliometric method (Recirculating still)	–	120.72
Crystal, Adiabatic calorimetry	275.03	–

molar heat capacity [J/K/mol], [2]
Conditions	Crystal	Liquid
4.929 K, Vacuum adiabatic calorimetry	0.32	–
5 K, Vacuum adiabatic calorimetry	0.33	–
5.867 K, Vacuum adiabatic calorimetry	0.56	–
6.798 K, Vacuum adiabatic calorimetry	0.931	–
7.734 K, Vacuum adiabatic calorimetry	1.41	–
8.759 K, Vacuum adiabatic calorimetry	2.08	–
9.819 K, Vacuum adiabatic calorimetry	2.94	–
10 K, Vacuum adiabatic calorimetry	3.08	–
10.94 K, Vacuum adiabatic calorimetry	3.96	–
12.2 K, Vacuum adiabatic calorimetry	5.23	–
13.6 K, Vacuum adiabatic calorimetry	6.8	–
15.14 K, Vacuum adiabatic calorimetry	8.647	–
16.83 K, Vacuum adiabatic calorimetry	10.74	–
18.67 K, Vacuum adiabatic calorimetry	13.06	–
20 K, Vacuum adiabatic calorimetry	14.74	–
20.68 K, Vacuum adiabatic calorimetry	15.6	–
22.91 K, Vacuum adiabatic calorimetry	18.38	–
25.4 K, Vacuum adiabatic calorimetry	21.41	–
28.17 K, Vacuum adiabatic calorimetry	24.67	–
30 K, Vacuum adiabatic calorimetry	26.76	–
31.26 K, Vacuum adiabatic calorimetry	28.16	–
34.71 K, Vacuum adiabatic calorimetry	31.86	–
38.53 K, Vacuum adiabatic calorimetry	35.74	–
40 K, Vacuum adiabatic calorimetry	37.17	–
42.79 K, Vacuum adiabatic calorimetry	39.83	–
47.54 K, Vacuum adiabatic calorimetry	44.15	–
50 K, Vacuum adiabatic calorimetry	46.29	–
52.85 K, Vacuum adiabatic calorimetry	48.69	–
58.73 K, Vacuum adiabatic calorimetry	53.4	–
59.8 K, Vacuum adiabatic calorimetry	54.26	–
60 K, Vacuum adiabatic calorimetry	54.39	–
65.16 K, Vacuum adiabatic calorimetry	58.28	–
65.33 K, Vacuum adiabatic calorimetry	58.42	–
70 K, Vacuum adiabatic calorimetry	61.88	–
71.56 K, Vacuum adiabatic calorimetry	63.02	–
78.46 K, Vacuum adiabatic calorimetry	67.87	–
80 K, Vacuum adiabatic calorimetry	68.94	–
85.75 K, Vacuum adiabatic calorimetry	72.84	–
90 K, Vacuum adiabatic calorimetry	75.67	–
90.98 K, Vacuum adiabatic calorimetry	76.33	–
93.89 K, Vacuum adiabatic calorimetry	78.25	–
99.3 K, Vacuum adiabatic calorimetry	81.84	–
100 K, Vacuum adiabatic calorimetry	82.3	–
108.29 K, Vacuum adiabatic calorimetry	87.72	–
117.93 K, Vacuum adiabatic calorimetry	93.99	–
120 K, Vacuum adiabatic calorimetry	95.28	–
127.8 K, Vacuum adiabatic calorimetry	100.49	–
138.76 K, Vacuum adiabatic calorimetry	107.84	–
140 K, Vacuum adiabatic calorimetry	108.6	–
150.73 K, Vacuum adiabatic calorimetry	116.11	–
160 K, Vacuum adiabatic calorimetry	122.46	–
162.76 K, Vacuum adiabatic calorimetry	124.52	–
174.79 K, Vacuum adiabatic calorimetry	133.17	–
180 K, Vacuum adiabatic calorimetry	136.76	–
186.82 K, Vacuum adiabatic calorimetry	141.95	–
198.84 K, Vacuum adiabatic calorimetry	151.12	–
199.7 K, Vacuum adiabatic calorimetry	151.8	–
200 K, Vacuum adiabatic calorimetry	151.75	–
210.84 K, Vacuum adiabatic calorimetry	160.54	–
212.28 K, Vacuum adiabatic calorimetry	161.67	–
220 K, Vacuum adiabatic calorimetry	167.35	–
222.84 K, Vacuum adiabatic calorimetry	170.12	–
225.76 K, Vacuum adiabatic calorimetry	172.63	–
232.14 K, Vacuum adiabatic calorimetry	177.99	–
234.83 K, Vacuum adiabatic calorimetry	180.25	–
238.71 K, Vacuum adiabatic calorimetry	183.61	–
240 K, Vacuum adiabatic calorimetry	183.48	–
247.47 K, Vacuum adiabatic calorimetry	192.11	–
249.42 K, Vacuum adiabatic calorimetry	193.97	–
251.32 K, Vacuum adiabatic calorimetry	196.13	–
260 K, Vacuum adiabatic calorimetry	200.99	–
262.17 K, Vacuum adiabatic calorimetry	216.81	–
263.64 K, Vacuum adiabatic calorimetry	221.51	–
263.71 K, Vacuum adiabatic calorimetry	222.9	–
275.03 K, Vacuum adiabatic calorimetry	216.13	256.66
280 K, Vacuum adiabatic calorimetry	–	259.07
282.32 K, Vacuum adiabatic calorimetry	–	260.24
283.78 K, Vacuum adiabatic calorimetry	–	260.98
287.63 K, Vacuum adiabatic calorimetry	–	262.81
291.46 K, Vacuum adiabatic calorimetry	–	264.72
298.15 K, Vacuum adiabatic calorimetry	–	268.09
300 K, Vacuum adiabatic calorimetry	–	269.02
300.54 K, Vacuum adiabatic calorimetry	–	269.29
301.1 K, Vacuum adiabatic calorimetry	–	269.61
315.41 K, Vacuum adiabatic calorimetry	–	277.04
320 K, Vacuum adiabatic calorimetry	–	279.47
330.79 K, Vacuum adiabatic calorimetry	–	285.2
340 K, Vacuum adiabatic calorimetry	–	290.16
343.22 K, Vacuum adiabatic calorimetry	–	291.9
359.69 K, Vacuum adiabatic calorimetry	–	300.83
360 K, Vacuum adiabatic calorimetry	–	301
376.04 K, Vacuum adiabatic calorimetry	–	309.7
380 K, Vacuum adiabatic calorimetry	–	311.85
392 K, Vacuum adiabatic calorimetry	–	318.35
400 K, Vacuum adiabatic calorimetry	–	322.67
408.31 K, Vacuum adiabatic calorimetry	–	327.12
420 K, Vacuum adiabatic calorimetry	–	333.33
424.94 K, Vacuum adiabatic calorimetry	–	335.95
437.47 K, Vacuum adiabatic calorimetry	–	342.54
440 K, Small sample (50 mg) DSC	–	344.04
460 K, Small sample (50 mg) DSC	–	355.38
480 K, Small sample (50 mg) DSC	–	366.09
500 K, Small sample (50 mg) DSC	–	376.9
520 K, Small sample (50 mg) DSC	–	387.66
540 K, Small sample (50 mg) DSC	–	398.39
560 K, Small sample (50 mg) DSC	–	409.11
580 K, Small sample (50 mg) DSC	–	419.8
600 K, Small sample (50 mg) DSC	–	430.43

Conditions	Molar enthalpy of transition or fusion [kcal/mol]
[3]	3.348
